US10227369B2, “Short-chain fatty acid hexosamine analogs and their use in tissue engineering applications” (THE JOHNS HOPKINS UNIVERSITY, priority 2013, dated 2019)
Entries after “also recorded” stand apart in the source; their conditions may differ.

Experiments:
Assay type in all cases: cell-based, bovine
[1] = system: IL-1β-stimulated chondrocytes; assay: IL-1β-stimulated chondrocytes in 3D PEGDA hydrogels: biochemical analysis (DNA, sGAG, collagen), histology, immunohistochemistry; conditions: 10 ng/ml IL-1β; for DNA content of cell-laden hydrogels (cell viability): 21 days exposure, up to 150 μM
Method: (§1) Cell Isolation and Culturing. Bovine chondrocytes were isolated from 4- to 8-week-old calves (Research 87, Inc., Boylston, Mass.), as previously described. Briefly, cartilage was dissected from the femoral patellar groove and condyles and minced into approximately 1 mm^2 pieces. Cells were isolated from the tissue by digesting overnight at 37° C. with 2 mg/ml type II collagenase (Worthington Biochemical Corp., Lakewood, N.J.), 5% fetal bovine serum (FBS), 100 U/ml penicillin and 100 μg/ml streptomycin on an orbital shaker. The cell suspension was passed through a 70 μm cell strainer, followed by centrifugation. Cells were washed 3 times using sterile phosphate buffered saline (PBS). Chondrocyte medium was composed of high glucose Dulbecco's Modified Eagle's Medium (DMEM) supplemented with 10 mM HEPES, 0.4 mM L-proline, 50 μg/ml ascorbic acid, 10% (v/v) fetal bovine serum (FBS; Hyclone Laboratories, Inc., Logan, Utah), 0.1 mM non-essential amino acids, 100 U/ml penicillin and 100 μg/ml streptomycin.
(§2) Photoencapsulation in Poly(Ethylene Glycol)-Diacrylate (PEGDA) Hydrogels and Construct Culturing. For all 3D culture experiments, cells were photoencapsulated in PEGDA hydrogels, as previously described. Briefly, 100 mg PEGDA (3.4 kDa, SunBio, Anyang City, South Korea) was dissolved in 1 ml sterile PBS. A photoinitiator solution of Irgacure® 2959 (CIBA Specialty Chemicals) was prepared by dissolving 100 mg of Irgacure® 2959 in 1 ml 70% ethanol. Five microliters of the Irgacure® 2959 solution was added to 1 ml of PEGDA solution. Cells were suspended in the hydrogel precursor solution at a density of 20 million cells/ml and polymerized in sterile molds. A high cell density was chosen as it has been shown. Based on our previous studies a high cell density was chosen to best to support a cell phenotype and differentiation and cell phenotype. Polymerization was carried out using UV light (365 nm, 3.2 mW/cm^2) exposure for 5 minutes.
(§3) For chondrocyte experiments, the cell-laden hydrogels were cultured in chondrocyte medium supplemented with 10 ng/ml IL-1β for 3 days. Following the initial 3 days, constructs were cultured with medium containing specific concentrations of hexosamine analog with 10 ng/ml IL-1β for an additional 21 days. The medium was changed 3 times per week.
(§4) Biochemical Analysis. The constructs (n=3 for chondrocyte experiments and n=4 for chondrogenic experiments) were lyophilized for 48 hours and the dry weights measured. Constructs were then homogenized in 125 μg/ml papainase (Worthington Biochemical Corp., Lakewood, N.J.) and digested for 16 hours at 60° C. Quantification of DNA content was carried out using a Hoescht Dye 33342 DNA assay. Calf thymus DNA was used to generate standard curves. Quantification of sulfated glycosaminoglycans (sGAG), a molecule found in cartilage ECM, was carried out using a 1,9-dimethylmethylene blue (DMMB) dye assay; chondroitin sulfate was used to generate standard curves. Quantification of collagen was carried out via measuring hydroxyproline content after hydrolyzing in 6 N HCl overnight at 120° C. The reaction of hydroxyproline with chloramine-T and p-dimethylaminobenzaldehyde was performed as a measure of total collagen content; hydroxyproline was used to generate standard curves.
Histology and Immunohistochemistry. Constructs were fixed in 10% formalin or 4% paraformaldehyde followed by dehydration in increasing concentrations of ethanol, embedded in paraffin and sliced into 5 μm sections. After paraffin removal and subsequent rehydration, sections were stained for proteoglycans using Safranin-O and fast green or prepared for immunohistochemistry. For immunohistochemical staining of type II collagen, endogenous peroxidase was quenched using 3% (v/v) hydrogen peroxide in methanol. Sections were then incubated at 37° C. with 2.5% (w/v) hyaluronidase and stained using a Histostain-SP Kit (AEC, Broad Spectrum) (Life Technologies, Grand Island, N.Y.) following the manufacturer's instructions. […]

[2] = system: unstimulated chondrocytes; assay: Unstimulated (no IL-1β) chondrocytes in 3D PEGDA hydrogels: biochemical analysis and histology; conditions: for DNA content of cell-laden hydrogels (cell viability): 21 days exposure; for sGAG deposition / total collagen accumulation / type II collagen immunostaining: 21 days
Method: as §1, §2, §4
Histology and Immunohistochemistry. Constructs were fixed in 10% formalin or 4% paraformaldehyde followed by dehydration in increasing concentrations of ethanol, embedded in paraffin and sliced into 5 μm sections. After paraffin removal and subsequent rehydration, sections were stained for proteoglycans using Safranin-O and fast green or prepared for immunohistochemistry. For immunohistochemical staining of type II collagen, endogenous peroxidase was quenched using 3% (v/v) hydrogen peroxide in methanol. Sections were then incubated at 37° C. with 2.5% (w/v) hyaluronidase and stained using a Histostain-SP Kit (AEC, Broad Spectrum) (Life Technologies, Grand Island, N.Y.) following the manufacturer's instructions. Primary antibody for type II collagen (Fitzgerald Industries International, Acton, Mass.) was used at a dilution of 1:100 in 1% (w/v) BSA dissolved in PBS.

[3] = system: IL-1β stimulated chondrocytes; assay: Monolayer chondrocytes with IL-1β: real-time PCR of NFκB target genes; conditions: 50 μM, 10 ng/ml IL-1β
Method: as §1
Monolayer cell culture. […]
RNA Isolation and Real-Time PCR. […] Real-time PCR was carried out using a StepOnePlus™ Real-Time PCR System (Life Technologies, Grand Island, N.Y.). mRNA amounts for bovine primers were calculated using the ΔΔCt method. Relative mRNA quantities for goat primers were calculated using the Pfaffl method.

[4] = system: IL-1β-stimulated chondrocytes; assay: IL-1β-stimulated chondrocytes in 3D PEGDA hydrogels: real-time PCR gene expression; conditions: 10 ng/ml IL-1β, 21 days
Method: as §1, §2, §3
(§5) RNA Isolation and Real-Time PCR. Total RNA was extracted using TRIzol® reagent (Life Technologies, Grand Island, N.Y.) following the manufacturer's protocol. cDNA was synthesized using Superscript® II reverse transcriptase (Life Technologies, Grand Island, N.Y.) following the manufacturer's protocol. Real-time PCR was carried out using a StepOnePlus™ Real-Time PCR System (Life Technologies, Grand Island, N.Y.). mRNA amounts for bovine primers were calculated using the ΔΔCt method. Relative mRNA quantities for goat primers were calculated using the Pfaffl method.

[5] = system: unstimulated chondrocytes; assay: Unstimulated (no IL-1β) chondrocytes in 3D PEGDA hydrogels: real-time PCR gene expression; conditions: 21 days
Method: as §1, §2, §5

[6] = across the concentrations evaluated
[7] = concentrations similar to increased ECM accumulation

`CCCC(=O)OC1OC(CO)[C@@H](OC(=O)CCC)[C@H](OC(=O)CCC)C1NC(C)=O` (some centres unmarked) [1,3,4-O-Bu3GlcNAc, reference compound] was tested, and the “DNA content of cell-laden hydrogels (cell viability)” value (shortened to “DNA content of cell-laden hydrogels”) [1] was “no statistical differences”, the “sGAG accumulation normalized to DNA” value ([1]; 21 days, across the concentrations evaluated) was “did not alter; also recorded: no statistical differences” and the “total collagen deposition normalized to DNA” value [1, 6] was “did not alter; also recorded: no statistical differences”. For the same compound, the “DNA content of cell-laden hydrogels” value [2] was “no statistical differences”, the “sGAG deposition normalized to DNA” value [2, 6] was “did not alter; also recorded: no statistical differences” and the “total collagen deposition normalized to DNA” value [2, 6] was “did not alter; also recorded: no statistical differences”.
With `CCCC(=O)OC[C@H]1OC(O)[C@H](NC(C)=O)[C@@H](OC(=O)CCC)[C@@H]1OC(=O)CCC` (some centres unmarked) [GlcNAc-a, 3,4,6-O-Bu3GlcNAc] the “lowest concentration at which an increase in Safranin-O and type II collagen stains is observed” value ([1]; 21 days) was 25 µM, the “DNA content of cell-laden hydrogels” value [1] was “did not elicit a statistically significant difference” and the “type II collagen immunostaining, stain intensity versus no analog” value ([1]; 21 days, 25 μM and 150 μM) was “slight increase in stain intensity”. The “change in sGAG deposition compared to no exposure” value ([1]; 21 days, 50 μM) was “almost doubling”, the “increase in collagen accumulation compared to no exposure” value ([1]; 21 days, 50 μM and 100 μM) was “almost doubling” and the “total collagen accumulation normalized to DNA” value ([1]; 21 days, 50 μM and 100 μM) was “significant increase”. The “type II collagen immunostaining” value ([1]; 21 days, 50 μM and 100 μM) was “increase in type II collagen immunostaining”, the “sGAG accumulation normalized to DNA” value ([1]; 21 days, at 150 μM) was “decreased” and the “sGAG accumulation normalized to DNA” value ([1]; 21 days, concentrations up to 100 μM, versus no analog) was “increase in sGAG accumulation”. For the same compound, the “expression levels of IL-1β, IκBα and iNOS” value ([3]; 4 hours exposure) was “able to alter expression levels of some of the genes”, the “expression levels of NFκB target genes (IL-1β, MMP13, ADAMTS4, ADAMTS5, iNOS, PGES, NFκB1, IκBα)” value ([3]; 24 hours exposure, MMP9 is the exception) was “decreased the expression levels of all genes evaluated” and the IκBα gene expression [4] was “decreased”. For the same compound, the “MMP13, NFκB1 and IκBα expression levels relative to unstimulated chondrocytes” value [4] was “near to that of unstimulated”, the NFKB1 gene expression [4] was “decreased” and the “aggrecan, type II collagen and type I collagen expression relative to unstimulated chondrocytes” value [4] was “approached expression levels found in unstimulated chondrocytes”. The MMP13 gene expression ([4]; 150 μM) was “further decrease”, the aggrecan gene expression [4, 7] was “increased” and the “type II collagen gene expression” value [4, 7] was “increased”. For the same compound, the MMP13 gene expression ([4]; higher concentrations (through 100 μM)) was “decrease”, the “type I collagen gene expression” value ([4]; intermediate concentrations) was “increased” and the MMP13 gene expression ([4]; low concentrations / lowest dose) was “initial increase”. For the same compound, the “DNA content of cell-laden hydrogels” value [2] was “did not elicit a statistically significant difference”, the sGAG deposition ([2]; 150 μM) was “a decrease was observed” and the total collagen accumulation ([2]; above 50 μM) was “concentration dependent decrease”. For the same compound, the “type II collagen immunostaining” value ([2]; above 50 μM) was “dose-dependent decrease”, the sGAG deposition ([2]; below 150 μM) was “did not have an effect” and the total collagen accumulation ([2]; through 50 μM) was “maintained collagen accumulation”. The “type II collagen immunostaining” value ([2]; through 50 μM) was “no differences”, the “type I collagen gene expression” value [5] was “concentration-dependent decrease” and the MMP13 gene expression ([5]; after lowest dose through 100 μM) was “decrease”. For the same compound, the “IκBα and NFκB1 gene expression” value ([5]; except the highest concentrations) was “Neither of these genes changed”, the “IκBα and NFκB1 gene expression” value ([5]; highest concentrations studied) was “an increase was observed” and the MMP13 gene expression ([5]; lowest dose) was “initial increase”.
In the case of `CCCC(=O)OC[C@H]1OC(O)[C@@H](NC(C)=O)[C@@H](OC(=O)CCC)[C@@H]1OC(=O)CCC` (some centres unmarked) [ManNAc-a, 3,4,6-O-Bu3ManNAc], the “proteoglycan deposition (Safranin-O staining)” value ([1]; 21 days, at 150 μM) is reported as “further increase” and the “sGAG accumulation normalized to DNA” value ([1]; 21 days, at 150 μM) is reported as “further increase”.
